What is called IC50 is the concentration that gives 50% inhibition. High values mean weaker potency in that assay, low ones greater potency in that assay.

Five molecules from article PMC10868801, “Characterization of covalent inhibitors that disrupt the interaction between the tandem SH2 domains of SYK and FCER1G phospho-ITAM” (PLOS ONE, 2024) can be followed below.

For assay [1], the target named is T1, SYK-tSH2 / FCER1G p-ITAM interaction (Homo sapiens, UniProt P43405).
T1 construct: the tSH2 domain of SYK (residues M6-N269) fused to an N-terminal 6×His tag; made in house; host or cells: E. coli BL21(DE3)-R3-pRARE
As to the kind of experiment: TR-FRET assay of 6xHis-SYK-tSH2 with FITC-labeled FCER1G p-ITAM peptide. The conditions noted are these: competition of FITC-labeled FCER1G p-ITAM peptide by unlabeled peptide. It is filed as biochemical. From the text: To facilitate identification of inhibitors of the SYK-FCER1G interaction, we developed a TR-FRET assay using recombinant protein comprising the tSH2 domain of SYK (residues M6-N269) fused to an N-terminal 6×His tag (S1A Fig). The TR-FRET assay is based on the interaction of a FITC-labeled FCER1G p-ITAM peptide to the 6×His-SYK-tSH2 protein in complex with a terbium-conjugated anti-His antibody (Tb-Ab) (Fig 3B). Once excited, a TR-FRET signal is generated from the Tb donor to the FITC acceptor fluorophore. […] To enable uHTS for large scale screening of small molecule libraries, we miniaturized the TR-FRET assay from 96-well plate format to a 1536-well.
TR-FRET experiments were performed in 20 μL reactions, using 384-well shallow-well microplates (PerkinElmer). Final reaction components contained 6xHis-SYK-tSH2 (SYKA-c020 tagged) (4 nM), FITC-conjugated FCER1G peptide (8 nM), Tb-conjugated anti-6xHis antibody (53 ng/ml; Cisbio) in assay buffer containing 25 mM HEPES (pH 7.5), 200 mM NaCl, 0.1% BSA and 0.05% Tween-20. After a 2h incubation (at room temperature), TR-FRET signals were measured on a BMG Labtech PHERAstar FSX reader using a Lanthascreen Optics Module. A 200 μs delay was used after excitation with a flash lamp before measurement of fluorescence emission at […]. TR-FRET ratios of fluorescent intensity at 520 nm to 490 nm were calculated. The half maximal inhibitory concentration (IC50) was determined by fitting a four parametric logistic curve to the data.
(TR-FRET usually uses a lanthanide donor and a delayed reading to cut background.)

For assay [2], the target named is T2, full length SYK and FCER1G (Homo sapiens, UniProt P43405).
T2 construct: full length GST-SYK and FCER1G-Flag were co-expressed in HEK293 cells prior to lysis; expressed in transfected cells; host or cells: HEK293T (CRL-3216, ATCC)
As to the kind of experiment: GST pull-down (GST-PD) of GST-SYK and FCER1G-Flag from HEK293T cell lysates. It is filed as biochemical. As for the experimental part:
Pull-down assays were used as an orthogonal assay to determine if the compounds could disrupt the PPI between full length SYK and FCER1G proteins from cell lysates. To optimize GST pulldown assays, full length GST-SYK and FCER1G-Flag were co-expressed in HEK293 cells prior to lysis and the protein expression and cell lysate concentrations tested (Fig 4A). All 40 compounds that progressed from uHTS were tested via GST-PD at a single concentration (100 μM) to determine if they could inhibit the PPI between the full-length proteins, with the p-ITAM FCER1G peptide used as a positive control (Fig 4B). […] Compound 24 contains a promiscuous maleimide, which is well known to react indiscriminately with proteins.
GST-, VF-tagged human SYK and FCER1G plasmids for mammalian expression were generated using Gateway cloning technology (Invitrogen) as described previously. The DNA was purified using ZymoPURE Plasmid Maxiprep Kit (D4203, Zymo Research).
WB secondary antibodies: peroxidase-conjugated AffiniPure Goat Anti-Mouse IgG (H+L) (115-035-003, Jackson Immuno Research) 1:5000 dilution in TBST. GST pulldown was performed as described with minor changes. HEK293T (CRL-3216, ATCC) were cultured in Dulbecco’s modified Eagle’s medium with 4.5 g/L glucose, L-glutamine, and sodium pyruvate (10–013-CV, Corning) supplemented with 10% fetal bovine serum and 1% penicillin/streptomycin solution (30–002-CI, CellGro). Cells were incubated at 37°C in humidified conditions with 5% CO2. The HEK293T cells were transfected using 1 mg/mL Polyethylenimine (PEI; 23966, Polysciences) in a ratio of 3 μL to 1 μg DNA. The proteins were expressed for 48 h at 37°C. Cell pellets were re-suspended in the SYK lysis buffer (25 mM HEPES, pH 7.5, 200 mM NaCl, 0.5% Triton X100 (T9284-1L, Sigma-Aldrich), followed by sonication for 10 s (5 s on, 5 s off) at 4°C. Cells were pelleted by 10 min centrifugation at 13,000 rpm at 4°C. The cleared lysates were first pre-incubated with compounds for 30 min and then incubated with glutathione sepharose 4B beads (17075605, Cytiva Sweden AB) at 4°C for 2 h with rotation. After the incubation, beads were washed three times with the SYK lysis buffer, eluted by boiling in sodium dodecyl sulfate-polyacrylamide gel electrophoresis (SDS–PAGE) loading buffer (1610737, Bio-Rad), and analyzed by western blotting.

The target in assay [3] is 6xHis-SYK-tSH2 (tandem SH2 domains of human SYK, residues M6-N269, SYKA-c020 tagged) (human) (UniProt P43405). In words: AlphaScreen or HTRF; TR-FRET competition: 6xHis-SYK-tSH2 4 nM with Tb-conjugated anti-6xHis antibody, FITC-conjugated FCER1G peptide 8 nM, unlabeled peptide titrated; 25 mM HEPES pH 7.5, 200 mM NaCl, 0.1% BSA, 0.05% Tween-20; 2 h at room temperature.

Non-standard residues stand in square brackets, D forms with d. Residues, ends and D or L forms follow the SMILES beside them. Primed or numbered codes have the meaning given here. No end group written: not given here. pY = N[C@@H](Cc1ccc(OP(=O)(O)O)cc1)C(=O)O; FITC′ = not defined here A value given as a limit tells only on which side of the number the result lay.

The molecule `CC(C)C[C@H](NC(=O)CNC(=O)[C@@H](NC(=O)[C@H](Cc1ccc(OP(=O)(O)O)cc1)NC(=O)[C@@H](NC(=O)CNC(=O)[C@@H](N)CC(=O)O)C(C)C)[C@@H](C)O)C(=O)N[C@@H](CO)C(=O)N[C@H](C(=O)N[C@@H](CCCNC(=N)N)C(=O)N[C@@H](CC(N)=O)C(=O)N[C@@H](CCC(N)=O)C(=O)N[C@@H](CCC(=O)O)C(=O)N[C@H](C(=O)N[C@@H](Cc1ccc(OP(=O)(O)O)cc1)C(=O)N[C@@H](CCC(=O)O)C(=O)N[C@H](C(=O)N[C@@H](CC(C)C)C(=O)N[C@@H](CCCCN)C(=O)N[C@@H](Cc1c[nH]cn1)C(=O)O)[C@@H](C)O)[C@@H](C)O)[C@@H](C)O` [FCER1G p-ITAM peptide] (H-DGV[pY]TGLSTRNQET[pY]ETLKH-OH) displayed a 50% inhibitory concentration (IC50) in assay [1] of 12 nM. This lies in the double-digit nanomolar range.
In the case of “non-phosphorylated FCER1G ITAM peptide: non-phosphorylated FCER1G ITAM peptide used as control (DGVYTGLSTRNQETYETLKH-{FITC′})”, the IC50 in assay [1] was over 1000 nM.
As for `O=C1C=CC(=O)N1c1ccc(Sc2ccc(N3C(=O)C=CC3=O)cc2)cc1` [compound 24], in assay [2] (dose-response format), the “PPI disruption in GST-PD” value was “confirmed to disrupt the PPI”. Besides, in assay [2] (single concentration (100 μM)), the “Inhibition of SYK-GST / FCER1G-Flag interaction in pulldown” value is given as “able to inhibit the interaction”.
FCER1G-phospho-ITAM[62–81] (peptide) came in with a 50% inhibitory concentration (IC50) in assay [3] of 12 nM.
In the case of “FCER1G-nonphospho-ITAM[62–81]-FITC (peptide)”, the 50% inhibitory concentration (IC50) in assay [3] is over 1000 nM.
